Data: patent publication US9629813B2, “Nanoparticle formulations with enhanced mucosal penetration” (The Johns Hopkins University, priority 2012, dated 2017)
One block for each molecule: values may come before it.

Legend:
[1] = Drug distribution in the vagina (Doxorubicin surface coverage on flattened tissue); format: in vivo, mouse; settings: for vaginal tissue area covered: non-ambulatory (supine for 1 h)
Experimental: (§1) Female 6-8 week-old CF-1 mice were purchased from Harlan (Indianapolis, Ind.). Mice were housed in a reverse light cycle facility (12 h light/12 h dark), to enable selection of mice in a naturally cycling estrus state. The mouse vagina during the estrus phase of the estrous cycle is most similar to the human vagina. Barrier properties to nanoparticles in estrus phase mouse mucus closely mimic the barrier properties to nanoparticles in human CVM. Thus, mice in estrus phase, as determined visually by the appearance of the vaginal introitus, were used for all distribution and retention studies. Mice used for vaginal HSV-2 protection and susceptibility studies were given a subcutaneous flank injection of 2.5 mg Depo-Provera (Pharmacia & Upjohn Company, New York, N.Y.) in 100 μL phosphate-buffered saline (PBS) 7 days prior to experiments. This treatment is commonly used to increase susceptibility to vaginal HSV-2 infection. All experimental protocols were approved by the Johns Hopkins Animal Care and Use Committee.
Doxorubicin (NetQem, Durham, N.C.) was dissolved at 1 mg/ml concentration in either PBS (isoosmolar with respect to blood) or ultrapure water (hypoosmolar). For 1 liter of 1×PBS, 800 ml of distilled water; 8 g of NaCl; 0.2 g of KCl; 1.44 g of Na2HPO4; 0.24 g of KH2PO4: adjust the pH to 7.4 with HCl, add distilled water to a total volume of 1 liter.
Doxorubicin was vaginally administered both isoosmotically and hypoosmotically to mice in two different conditions. The “non-ambulatory” group was anesthetized with an intraperitoneal injection of Avertin working solution (prepared according to Johns Hopkins ACUC guidelines) and remained supine for 1 hr prior to tissue collection. […] The images were ‘thresholded’ to draw region of interest boundaries around the fluorescent signal, and then the area covered quantified using ImageJ software. An average percentage coverage was determined for each mouse, and these values were averaged over groups of n=5 mice.

[2] = Drug retention in the vagina (Doxorubicin fluorescence of whole cervicovaginal tract); format: in vivo, mouse; settings: after 10 min supine; normalized to isoosmolar group
Experimental: Female 6-8 week-old CF-1 mice were purchased from Harlan (Indianapolis, Ind.). Mice were housed in a reverse light cycle facility (12 h light/12 h dark), to enable selection of mice in a naturally cycling estrus state. The mouse vagina during the estrus phase of the estrous cycle is most similar to the human vagina. Barrier properties to nanoparticles in estrus phase mouse mucus closely mimic the barrier properties to nanoparticles in human CVM. Thus, mice in estrus phase, as determined visually by the appearance of the vaginal introitus, were used for all distribution and retention studies. […]
Doxorubicin vas dissolved at a concentration 1 mg/ml in phosphate buffeted saline (“PBS”) (isoosmolar with respect to blood) or ultrapure water (hypoosmolar). […] Fluorescence images of the tissues were obtained using the Xenogen IVIS Spectrum imaging device (Caliper Life Sciences). To account for potential differences in Doxorubicin solution fluorescence, vials of both isoosmolar and hypoosmolar Doxorubicin solutions were included in the image. The ratio of the intensity of the two solutions was used to normalize the tissue fluorescence for each group. Quantification of fluorescent counts per unit area was calculated using the Xenogen Living Image 2.5 software. […]

[3] = Vaginal epithelial distribution of FITC-containing biodegradable MPP versus FITC in HEC gel after 24 h; format: in vivo, mouse; settings: MPP in UP water, FITC in isoosmolar HEC gel
Experimental: Biodegradable MPP containing FITC intravaginally was administered in UP water. As a comparison, FITC in the standard isoosmolar placebo gel, hydroxyethylcellulose (HEC), was administered. After 24 h, the vaginal tissue was excised and flattened between two glass slides.

HSV-2 strain G = assay: HSV-2 infection mouse model (vaginal protection); format: in vivo; settings: 10 ID50
Experimental: as §1
Mice received 20 μl of 10 mg/ml acyclovir monophosphate dissolved in either PBS (isoosmolar) or ultrapure water (hypoosmolar) immediately before use. […] Mice were dosed either 1 min or 60 min prior to viral inoculum. Mice were then challenged with 10 μl of inoculum containing HSV-2 strain G (ATCC #VR-724, 2.8×10^7 TCID50 per ml). For protection studies, HSV-2 was diluted 10-fold with Bartel's medium to deliver 10 ID50, a dose that typically infects 85-90% of control mice. For osmotic-induced susceptibility tests, virus was diluted 10-fold with Bartel's medium and further diluted 10-fold in either Bartel's medium (isoosmolar) or deionized water (hypoosmolar) to the ID50, a dose that infects half of the mice. Mice were assessed for infection three days later after inoculation by culturing a PBS vaginal lavage on human foreskin fibroblasts (Diagnostic Hybrids, MRHF Lot #440318W). In this model, input (challenge) virus is no longer detectable in lavage fluid if it is collected more than 12 h after the challenge.
The Wilcoxon rank-sum test was used to compare data sets. This test is non-parametric, and more appropriate in situations where a Gaussian distribution cannot be assumed. For HSV-2 infection studies, statistical significance was determined using Fisher's exact test, two-tailed distribution.

vaginal surface area covered ([1]; ambulatory for 10 mins, isoosmolar (isotonic) solution): 25%
vaginal tissue area covered ([1]; hypoosmolar solution (ultrapure water)): 88%
vaginal tissue area covered ([1]; isoosmolar solution (PBS)): 15%
relative fluorescent signal in reproductive tract, hypoosmolar versus isoosmolar solution [2]: half
Molecule: COc1cccc2c1C(=O)c1c(O)c3c(c(O)c1C2=O)C[C@@](O)(C(=O)CO)C[C@@H]3O[C@H]1C[C@H](N)[C@H](O)[C@H](C)O1 [Doxorubicin]

epithelial distribution on flattened vaginal tissue [3]: sparsely distributed
Molecule: FITC

Molecule: acyclovir monophosphate [ACVp]
mice infected (HSV-2 strain G; 1% ACVp 1 min before virus, administered hypotonically): 31%
mice infected (HSV-2 strain G; 1% ACVp 1 min before virus, administered isotonically): 49%
mice infected (HSV-2 strain G; 1% ACVp 1 h before virus, administered hypotonically): 73%
mice infected (HSV-2 strain G; 1% ACVp 1 h before virus, administered isotonically): 45%
